Results on nine molecules are retold here after patent US5756092A, “Use, in a composition, as cyclooxygenase activator and/or stabilizer, of at least one pyrimidine derivative sustituted at the 6th position and a cyclooxygenase substrate” (SocieteL'Oreal S.A., priority 1995, dated 1998).

Assay [1] addresses T1, prostaglandin-endoperoxide synthase (PGHS) (Ovis aries, UniProt P05979).
T1 construct: isolated from sheep seminal gland; purchased Cayman Chemical 60100; host or cells: sheep seminal gland
T1 sequence (P05979 25-600): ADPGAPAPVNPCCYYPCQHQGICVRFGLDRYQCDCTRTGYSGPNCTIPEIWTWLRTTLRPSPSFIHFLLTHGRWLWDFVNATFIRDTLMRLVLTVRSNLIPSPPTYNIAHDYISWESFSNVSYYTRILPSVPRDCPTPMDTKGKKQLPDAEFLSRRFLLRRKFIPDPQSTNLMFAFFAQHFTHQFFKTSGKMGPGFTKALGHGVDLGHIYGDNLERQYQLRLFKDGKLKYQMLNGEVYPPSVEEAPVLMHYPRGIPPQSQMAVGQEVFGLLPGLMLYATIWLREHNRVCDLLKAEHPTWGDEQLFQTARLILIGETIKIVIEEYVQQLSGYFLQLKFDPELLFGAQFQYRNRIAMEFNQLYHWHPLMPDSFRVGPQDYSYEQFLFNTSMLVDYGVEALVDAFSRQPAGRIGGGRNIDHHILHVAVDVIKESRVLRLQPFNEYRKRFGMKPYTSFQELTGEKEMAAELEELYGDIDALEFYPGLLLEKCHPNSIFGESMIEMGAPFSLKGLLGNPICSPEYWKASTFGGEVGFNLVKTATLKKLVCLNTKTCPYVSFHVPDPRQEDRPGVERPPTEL
Kind of assay: Measurement of the activating and/or stabilizing power at a given concentration (oxygen consumption, Clark electrode). It counts as biochemical, sheep. The conditions noted are these: 0.5 mM; 37° C.; initial rate; % relative to control. The text has this:
As indicated above, the enzymatic activity of a cyclooxygenase is indicated by a consumption of oxygen. It is therefore possible to monitor the course of the reaction in progress by measuring the consumption of oxygen in the reaction medium and thus to evaluate the activity of the enzyme by measuring the consumption of oxygen.
At time T=0 of the process, a buffered solution containing a cyclooxygenase is introduced into a measuring tank and then the whole is allowed to stabilize for at least one minute.
At time T=1 minute, an appropriate quantity of enzyme substrate is added and the oxygen consumption of the reaction is recorded.
This recording makes it possible to deduce the initial rate of the reaction and the period during which the initial rate of the reaction is maintained.
When a substance potentially having an activity on the cyclooxygenase is tested, the variation of the slope in a positive or negative direction relative to the results obtained with the enzyme alone reflects either the activation or the inhibition of the activity of the enzyme.
Measurement of the activating and/or stabilizing power of pyrimidine derivatives substituted at the 6th position, at a given concentration.
The quantity of oxygen necessary for the oxidation of arachidonic acid is measured by the cyclooxygenase activity of prostaglandin-endoperoxide synthase, in the presence or absence of the derivative to be tested.
The measurements of the consumption of oxygen are performed with a Clark electrode connected to a YSI 5300 oxygen meter of the Yellow Spring Instruments trademark.
These measurements are performed in an open chamber, with constant stirring, at a temperature of 37° C.
If a graph recorder is used, the measurement of the oxygen consumption takes the form of a curve whose maximum slope makes it possible to deduce the initial rate of the reaction, and from which it is possible to calculate the period during which the initial rate of the reaction is maintained.
The measurement of the activity of the derivatives to be tested is performed under the same conditions, by adding, to the reaction medium, the derivative to be tested. It is the variation of the slope and the variation of the period during which the maximum rate is maintained which make it possible to evaluate the activity of the derivative to be tested towards cyclooxygenase.
A solution of 0.1M TRIS and 5 mM EDTA at pH=8.00 (TE solution) is prepared.
The substrate is prepared in the form of a stock solution of potassium arachidonate according to the manufacturer's procedure (Interchim, France).
The solution thus obtained has an arachidonic acid titre of 46 mM. It can be stored at 4° C. for 24 hours.
The derivatives to be tested are prepared in the form of a stock solution with a titre of 5 mM in a water/alcohol mixture (80/20) and tested with the same batch of enzyme.
At t=0, there are introduced into the measuring chamber 380 μl of TEA buffer preheated to 37° C. that are allowed to equilibrate for at least one minute.
At t=1, 300 units of enzyme (PGHS) are introduced.
The recording is initiated and the whole is again allowed to stabilize for one minute. The recording obtained gives the base level of the reaction.
After an additional minute, 10 μl of substrate are introduced and the consumption of oxygen is recorded for 2 to 3 minutes.
The initial rate of the reaction and the period during which this rate is maintained are thus determined.
The experimental conditions are identical to those above, except that the TEA buffer preheated to 37° C. is replaced by an identical buffer containing the derivative to be tested at a concentration of 0.5 mM.

The conditions of assay [2]: U.S. Pat. No. 4,596,812; cited from earlier work.
Assay [3] has as its system hair growth. Particulars: U.S. Pat. No. 4,596,812; cited from earlier work.
In assay [4] the target is T2, prostaglandin-endoperoxide synthase (Ovis aries, UniProt P05979).
T2 construct: isolated from sheep seminal gland
T2 sequence (P05979 25-600): T1 sequence (P05979 25-600)
Kind of assay: Calculation of the 50% activating concentration (AC 50) for the activation of prostaglandin-endoperoxide synthase. It counts as biochemical, sheep. The method, then: Calculation of the 50% activating concentration (AC 50) of 2,4-diamino-6-piperidinopyrimidine 3-oxide for the activation of prostaglandin-endoperoxide synthase. 2,4-diamino-6-piperidinopyrimidine 3-oxide Activation
By a statistical calculation (log-linear regression, the correlation coefficient being 0.98 and the significance of the binding less than or equal to 0.01), an AC 50 is found for 40 μM for 2,4-diamino-6-piperidinopyrimidine 3-oxide.

The test system of assay [5] is lipoxygenase. Particulars: literature (Bedford et al., 1983); cited from earlier work.
Assay [6] has as its system cyclooxygenase. Particulars: literature; cited from earlier work.

For the molecule `CCCCOc1cc(N)[n+]([O-])c(N)n1` [2,4-diamino-6-butyloxypyrimidine 3-oxide], in assay [1], the activation at 500 µM was 13%.
For the molecule `Nc1cc(N2CCCCC2)nc(N)[n+]1[O-]` [2,4-diamino-6-piperidinopyrimidine 3-oxide], the antihypertensive effects result in assay [2] was “antihypertensive effects”. Also, the activation at 500 µM is 58% in assay [1] and 146% in assay [4] (500 μM, read-out: Activation (% of control)). For the same molecule, the “capacity to promote hair growth” value in assay [3] was “capacity to promote hair growth”. For the same molecule, the activation at 15.6 µM in assay [4] (15.6 μM, read-out: Activation (% of control)) was 23%. Also, in assay [4] (62.5 μM, read-out: Activation (% of control)), the activation at 62.5 µM was 61%. In addition, in assay [4] (125 μM, read-out: Activation (% of control)), the activation at 125 µM is 90%. In addition, the activation at 250 µM in assay [4] (250 μM, read-out: Activation (% of control)) is 102%. The activation at 1000 µM in assay [4] (1000 μM, read-out: Activation (% of control)) is 181%. For the same molecule, in assay [4] (log-linear regression, correlation coefficient 0.98), the AC50 is 40 µM.
`Nc1cc(N2CCCCC2)nc(N)n1` [2,4-diamino-6-piperidinopyrimidine]: the activation at 500 µM in assay [1] was -14%.
Same read-out and setting: then `CCCNc1cc(N(C)C)nc(NCCC)[n+]1[O-]` [2,4-dipropylamino-6-dimethylaminopyrimidine 3-oxide], with 171%; and `CCCNc1cc(N(C)C)nc(N)[n+]1[O-]` [2-amino-4-propylamino-6-dimethylaminopyrimidine 3-oxide], with 117%; and `CCCNc1cc(N2CCCCC2)nc(N)[n+]1[O-]` [2-amino-4-propylamino-6-piperidinopyrimidine 3-oxide], with 173%.
On the same count and under the same terms, then `Cc1nc(N2CCCCC2)cc(N)[n+]1[O-]` [2-methyl-4-amino-6-piperidinopyrimidine 3-oxide], with 24%.
For the molecule `O=C1C(O)=C(O)C(=O)c2cc(Cl)ccc21` [6-chloro-2,3-dihydroxy-1,4-naphthoquinone], the effect on lipoxygenase entry in assay [5] is listed as “lipoxygenase inhibitor”. The “effect on cyclooxygenase activity” value in assay [6] is recorded as “cyclooxygenase stimulating agent”.
Regarding `COc1ccc2c(c1)c(CC(=O)O)c(C)n2C(=O)c1ccc(Cl)cc1` [Indomethacin, 1-(4-Chlorobenzoyl)-5-methoxy-2-methyl-1H-indole-3-acetic acid], in assay [1], the activation at 500 µM is -100%.

By AC50 is commonly meant the concentration giving half of the maximal activity seen.
